Our source for the DC50 and Dmax values is US20210283139A1, “BIFUNCTIONAL MOLECULES FOR TARGETING UCHL5” (AMPHISTA THERAPEUTICS LTD, priority 2018, published 2021).

Holding throughout (format): cell-based
Test [1] addresses T1, Brd4 (L) (Homo sapiens, UniProt O60885).
T1 construct: endogenous in cells; host or cells: HEK293, HeLa
Briefly: Concentration-dependent BET degradation, immunoblot, HEK293 cells. The settings on record: 6 h treatment, 1 nM-10 μM; for Dmax: read-out: Dmax (%) maximum degradation observed. On the procedure: (§1) Cell culture. HeLa (CCL-2) and HEK293 (CRL-1573) cells were purchased from ATCC and cultured in DMEM medium (Gibco) supplemented with 10% FBS, 100 μg/mL penicillin/streptomycin and L-glutamine. Cells were grown at 37° C. and 5% CO2, and were kept no longer than 30 passages. All cell lines were routinely tested for mycoplasma contamination using MycoAlert kit from Lonza.
(§2) Immunoblotting. proteins were separated by SDS-PAGE on NuPage 4-12% Bis-Tris gels, followed by transfer to Amersham Protran 0.45 NC nitrocellulose membrane (GE Healthcare) using wet transfer. Membranes were blocked using 5% w/v milk in Tris-buffered saline (TBS) with 0.1% Tween-20. Blots were probed (overnight at 4° C.) using anti-Brd2 (Abcam ab139690, 1:2,000 dilution), anti-Brd3 (Abcam ab50818, 1:500 dilution), and anti-Brd4 (Abcam ab128874, 1:1,000 dilution) primary antibodies, as appropriate. The next day, blots were washed with TBST and incubated (1 hr at RT) with anti-Tubulin hFAB-rhodamine (BioRad, 12004166) primary antibody, and either anti-rabbit IRDye 800CW (Licor 1:10,000 dilution) or anti-mouse IRDye 800CW (Licor 1:10,000 dilution) secondary antibody. Blots were developed using a Bio-Rad ChemiDoc MP Imaging System, and band quantification was performed using Image Studio software (LiCor). Band intensities were normalized to the tubulin loading control and reported as % of the average 0.1% DMSO vehicle intensity. Degradation data was plotted and analysed using Prism (Graphpad, version 8).
(§3) HeLa (5×10^5) and HEK293 (1×10^6) cells were seeded in standard 6-well plates (2 mL medium) overnight before treatment with compounds at the desired concentration (1 nM-10 μM), with a final DMSO concentration of 0.1% v/v. After 6 h treatment time, cells were washed with DPBS (Gibco) and lysed using 85 μL RIPA buffer (Sigma-Aldrich) supplemented with cOmplete Mini EDTA-free protease inhibitor cocktail (Roche) and benzonase. Lysates were clarified by centrifugation (20,000g, 10 min, 4° C.) and the total protein content of the supernatant was quantified using a Bradford colorimetric assay. Samples were prepared using equal amounts of total protein and LDS sample buffer (Invitrogen.
(§4) Representative blots in FIG. 3 show depletion of Brd2, Brd3 and Brd4 protein levels following treatment with increasing concentrations of representative compounds. Band intensities were normalized to the β-tubulin loading control and reported as % of the average 0.1% DMSO vehicle intensity, with each point representing mean±SEM of two independent experiments (n=2). Degradation data was plotted and analysed using Prism (Graphpad, version 8)

The target in test [2] is T2, Brd4 (S) (Homo sapiens, UniProt O60885).
T2 construct: endogenous in cells; host or cells: HEK293, HeLa
The test is described as above. The settings on record: 6 h treatment, 1 nM-10 μM; for Dmax: read-out: Dmax (%) maximum degradation observed. On the procedure:
as §1, §2, §3, §4

The target of test [3] is T1, Brd4 (L). The test can be described thus: Concentration-dependent BET degradation, immunoblot, HeLa cells. The settings on record: 6 h treatment, 1 nM-10 μM; for Dmax: read-out: Dmax (%) maximum degradation observed. On the procedure: as §1, §2, §3, §4
On the technique in general: A western blot detects proteins with antibodies after separation by electrophoresis.

For test [4], the target named is T2, Brd4 (S). The test is described as above. The settings on record: 6 h treatment, 1 nM-10 μM; for Dmax: read-out: Dmax (%) maximum degradation observed. On the procedure: as §1, §2, §3, §4
The target in test [5] is T1, Brd4 (L). Briefly: Time-dependent BET degradation, immunoblot, HEK293 cells. Also on record: dose or concentration left out as unconfirmed. The settings on record: timecourse 0-8 h. On the procedure:
as §1, §2
as §3, with “(3×10^5)” for “(5×10^5)”, “(0.5×10^6)” for “(1×10^6)”, “1 μM concentration,” for “the desired concentration (1 nM-10 μM),”, “incubation for the desired time (0-8 h),” for “6 h treatment time,”, “(20,000 g,” for “(20,000g,”, “(Invitrogen).” for “(Invitrogen.”
(§5) Representative blots in FIG. 4 show depletion of Brd2, Brd3 and Brd4 protein levels following 1 μM treatment at various time points with representative compounds. Band intensities were normalized to the β-tubulin loading control and reported as % of the average 0.1% DMSO vehicle intensity, with each point representing mean±SEM of two independent experiments (n=2). Degradation data was plotted and analysed using Prism (Graphpad, version 8).
(§6) T½ (h) is the time required to deplete 50% of the protein relative to DMSO

Test [6] has as its target T2, Brd4 (S). The description is as above. Also on record: dose or concentration left out as unconfirmed. The settings on record: timecourse 0-8 h. On the procedure: as §1, §2
as §3, with “(3×10^5)” for “(5×10^5)”, “(0.5×10^6)” for “(1×10^6)”, “1 μM concentration,” for “the desired concentration (1 nM-10 μM),”, “incubation for the desired time (0-8 h),” for “6 h treatment time,”, “(20,000 g,” for “(20,000g,”, “(Invitrogen).” for “(Invitrogen.”
as §5, §6

The target of test [7] is T1, Brd4 (L). Briefly: Time-dependent BET degradation, immunoblot, HeLa cells. Also noted: dose or concentration left out as unconfirmed. The settings on record: timecourse 0-8 h. On the procedure: as §1, §2
as §3, with “(3×10^5)” for “(5×10^5)”, “(0.5×10^6)” for “(1×10^6)”, “1 μM concentration,” for “the desired concentration (1 nM-10 μM),”, “incubation for the desired time (0-8 h),” for “6 h treatment time,”, “(20,000 g,” for “(20,000g,”, “(Invitrogen).” for “(Invitrogen.”
as §5, §6

The target of test [8] is T2, Brd4 (S). Described as above. The settings on record: timecourse 0-8 h. Also on record: dose or concentration left out as unconfirmed. On the procedure: as §1, §2
as §3, with “(3×10^5)” for “(5×10^5)”, “(0.5×10^6)” for “(1×10^6)”, “1 μM concentration,” for “the desired concentration (1 nM-10 μM),”, “incubation for the desired time (0-8 h),” for “6 h treatment time,”, “(20,000 g,” for “(20,000g,”, “(Invitrogen).” for “(Invitrogen.”
as §5, §6

In test [9] the target is T3, Brd2 (Homo sapiens, UniProt P25440). Briefly: Concentration-dependent BET degradation, immunoblot, HeLa cells. Also on record: endogenous in cells; host or cells: HeLa. The settings on record: Brd2, 6 h treatment, 1 nM-10 μM; for Dmax: read-out: Dmax (%) maximum degradation observed. On the procedure: as §1, §2, §3, §4
T3 sequence (P25440 whole entry): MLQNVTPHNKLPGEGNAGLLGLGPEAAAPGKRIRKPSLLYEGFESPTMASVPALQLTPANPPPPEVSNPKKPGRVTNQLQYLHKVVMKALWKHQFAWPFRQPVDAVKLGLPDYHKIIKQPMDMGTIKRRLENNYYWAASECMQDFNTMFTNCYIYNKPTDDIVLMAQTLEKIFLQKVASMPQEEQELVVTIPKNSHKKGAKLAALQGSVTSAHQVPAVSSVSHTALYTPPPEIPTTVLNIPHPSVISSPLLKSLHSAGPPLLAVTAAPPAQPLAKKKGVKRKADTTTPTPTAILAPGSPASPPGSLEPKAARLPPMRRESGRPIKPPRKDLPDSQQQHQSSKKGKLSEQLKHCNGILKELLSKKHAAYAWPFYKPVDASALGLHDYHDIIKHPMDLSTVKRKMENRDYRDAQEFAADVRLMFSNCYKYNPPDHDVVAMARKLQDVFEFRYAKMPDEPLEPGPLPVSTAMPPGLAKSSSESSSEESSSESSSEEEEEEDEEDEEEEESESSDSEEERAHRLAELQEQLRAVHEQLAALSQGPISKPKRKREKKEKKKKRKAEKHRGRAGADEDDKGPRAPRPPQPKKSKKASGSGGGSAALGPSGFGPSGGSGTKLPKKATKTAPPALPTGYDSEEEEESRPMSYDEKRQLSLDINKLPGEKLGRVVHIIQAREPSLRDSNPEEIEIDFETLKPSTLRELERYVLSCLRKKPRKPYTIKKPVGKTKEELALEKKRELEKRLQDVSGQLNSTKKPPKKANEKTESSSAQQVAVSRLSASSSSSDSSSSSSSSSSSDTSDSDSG
Test [10] has as its target T4, Brd3 (Homo sapiens, UniProt Q15059). The description is as above. Also noted: endogenous in cells; host or cells: HeLa. The settings on record: Brd3, 6 h treatment, 1 nM-10 μM; for Dmax: read-out: Dmax (%) maximum degradation observed. On the procedure: as §1, §2, §3, §4
Test [11] addresses T3, Brd2. The test can be described thus: Time-dependent BET degradation, immunoblot, HeLa cells. Also on record: endogenous in cells; host or cells: HeLa. The settings on record: Brd2, 1 μM, timecourse 0-8 h. On the procedure:
as §1, §2
as §3, with “(3×10^5)” for “(5×10^5)”, “(0.5×10^6)” for “(1×10^6)”, “1 μM concentration,” for “the desired concentration (1 nM-10 μM),”, “incubation for the desired time (0-8 h),” for “6 h treatment time,”, “(20,000 g,” for “(20,000g,”, “(Invitrogen).” for “(Invitrogen.”
as §5, §6

Test [12] concerns the target T4, Brd3. Described as above. The settings on record: Brd3, 1 μM, timecourse 0-8 h. Also noted: endogenous in cells; host or cells: HeLa. On the procedure:
as §1, §2
as §3, with “(3×10^5)” for “(5×10^5)”, “(0.5×10^6)” for “(1×10^6)”, “1 μM concentration,” for “the desired concentration (1 nM-10 μM),”, “incubation for the desired time (0-8 h),” for “6 h treatment time,”, “(20,000 g,” for “(20,000g,”, “(Invitrogen).” for “(Invitrogen.”
as §5, §6

In test [13] the target is T3, Brd2. Briefly: Concentration-dependent BET degradation, immunoblot, HEK293 cells. Also noted: endogenous in cells; host or cells: HEK293. The settings on record: HEK293, Brd2, 6 h treatment, 1 nM-10 μM; for Dmax: read-out: Dmax (%) maximum degradation observed. On the procedure:
as §1, §2, §3, §4

A value given as a limit tells only on which side of the number the result lay.

T4 sequence (Q15059 whole entry): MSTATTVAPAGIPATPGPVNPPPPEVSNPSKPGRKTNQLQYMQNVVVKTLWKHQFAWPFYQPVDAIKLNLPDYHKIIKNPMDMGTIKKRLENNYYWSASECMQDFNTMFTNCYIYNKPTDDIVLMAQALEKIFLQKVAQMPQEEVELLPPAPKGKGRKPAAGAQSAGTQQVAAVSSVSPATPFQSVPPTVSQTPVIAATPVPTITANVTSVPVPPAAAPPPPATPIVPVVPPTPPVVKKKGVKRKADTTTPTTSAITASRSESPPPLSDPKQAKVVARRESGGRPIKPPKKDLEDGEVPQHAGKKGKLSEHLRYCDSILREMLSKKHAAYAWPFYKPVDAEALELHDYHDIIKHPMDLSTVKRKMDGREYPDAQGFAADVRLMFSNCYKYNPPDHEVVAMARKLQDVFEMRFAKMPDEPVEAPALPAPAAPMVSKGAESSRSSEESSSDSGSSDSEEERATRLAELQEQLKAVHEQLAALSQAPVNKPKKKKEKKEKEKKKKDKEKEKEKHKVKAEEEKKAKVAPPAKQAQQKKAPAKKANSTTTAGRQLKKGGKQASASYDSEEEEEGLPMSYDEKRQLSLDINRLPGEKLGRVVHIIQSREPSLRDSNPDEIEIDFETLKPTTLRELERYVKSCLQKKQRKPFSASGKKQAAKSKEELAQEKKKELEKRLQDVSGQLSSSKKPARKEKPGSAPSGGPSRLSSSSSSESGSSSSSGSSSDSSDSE

One may read the DC50 as the concentration giving 50% degradation. For orientation: Dmax means the greatest extent of degradation seen. As for `CCCC(NC(=O)/C(C#N)=C/c1cccc(Br)n1)c1ccc(OCC=NOCC(=O)NCCOCCOCCOCCOCCOCCNC(=O)c2ccc3c(c2)[C@H](Nc2ccc(Cl)cc2)C[C@H](C)N3C(C)=O)cc1` (stereo partly drawn) [Example 05IB3], the DC50 in [1] is no more than 50 nM; in test [2], no more than 50 nM; in [3], 51 to 500 nM; in test [4], no more than 50 nM; in test [9], 51 to 500 nM; in test [10], 51 to 500 nM. The molecule further yielded a DC50 in test [13] of 51 to 500 nM. Further, the Dmax in [1] is no less than 71%; in test [2], no less than 71%; in test [3], no less than 71%; in test [4], no less than 71%; in test [5], 96%; in [6], 100%. Also, the Dmax in test [7] was 79%; in test [8], 100%; in test [9], no less than 71%; in [10] it was no less than 71%; in [13], no less than 71%. Further, the Dmax at 1 µM worked out at 54% in [11] and 100% in test [12].
In the case of `CCCC(NC(=O)/C(C#N)=C/c1nccs1)c1ccc(OCCOCCOCCOCCOCCOCCOCCNC(=O)c2ccc(-c3ccc4c(c3)[C@H](Nc3ccc(Cl)cc3)C[C@H](C)N4C(C)=O)cc2)cc1` (stereo partly drawn) [Example 05IB9], the DC50 was no more than 50 nM in test [1]; no more than 50 nM in test [2]; no more than 50 nM in [3]; no more than 50 nM in test [4]; 51 to 500 nM in test [9]; no more than 50 nM in [10]. For the same molecule, in test [13], the DC50 was no more than 50 nM. In addition, the Dmax in test [1] is no less than 71%; in test [2] it was no less than 71%; in [3], no less than 71%; in test [4] it was no less than 71%; in test [5] it was 96%; in [6], 96%. For the same molecule, the Dmax is 100% in test [7]; 100% in test [8]; no less than 71% in [9]; 51 to 70% in test [10]; 51 to 70% in [13]. For the same molecule, the Dmax at 1 µM in [11] stood at 76%; in test [12] it was 80%.
Regarding `CCCC(NC(=O)/C(C#N)=C/c1cccc(Br)n1)c1ccc(OCCOCCOCCOCCOCCOCCOCCNC(=O)c2ccc(-c3ccc4c(c3)[C@H](Nc3ccc(Cl)cc3)C[C@H](C)N4C(C)=O)cc2)cc1` (stereo partly drawn) [Example 05IB6], the DC50 was no more than 50 nM in test [1]; no more than 50 nM in test [2]; 51 to 500 nM in [3]; no more than 50 nM in [4]; no more than 50 nM in test [9]; no more than 50 nM in test [10]. Moreover, in test [13], the DC50 was 51 to 500 nM. The Dmax in [1] is no less than 71%; in test [2], no less than 71%; in test [3], no less than 71%; in test [4] it was no less than 71%; in [5], 100%; in [6], 97%. In addition, the greatest degradation seen (Dmax) is 100% in test [7]; 100% in test [8]; no less than 71% in test [9]; no less than 71% in test [10]; 26 to 50% in test [13]. Besides, the Dmax at 1 µM was 79% in test [11] and 90% in test [12].
